{
  "source": "paper PMC11513842",
  "about": "“Development of an orally bioavailable CDK12/13 degrader and induction of synthetic lethality with AKT pathway inhibition” (Cell Reports Medicine, 2024)",
  "key": {"[1]": {"system": "VCaP cells", "assay": "Cell viability assay (CellTiter-Glo, 5 days)", "format": "cell-based, human", "details": "Homo sapiens, VCaP", "procedure": "(§1) Cells were seeded in 96-well plates and incubated at 37°C with 5% CO2 overnight. A series of compound dilutions were added into the cells. After 5 days incubation, cell proliferation was tested using the CellTiter-Glo assay (Promega) according to the manufacturer’s protocol. Luminescence was measured using the Infinite M1000 Pro plate reader (Tecan). Data analysis was conducted using GraphPad Prism software."}, "[2]": {"system": "RWPE1", "assay": "Cell viability assay (CellTiter-Glo, 5 days)", "format": "cell-based", "details": "Homo sapiens, RWPE-1; RWPE, dose-response curve, Figure 3A", "procedure": "as §1"}, "[3]": {"system": "PNT2", "assay": "Cell viability assay (CellTiter-Glo, 5 days)", "format": "cell-based", "details": "Homo sapiens, 120 h; PNT2, 5 days of treatment, Figure 1F", "procedure": "as §1"}, "[4]": {"system": "CWR22RV1", "assay": "Cell viability assay (CellTiter-Glo, 5 days)", "format": "cell-based", "details": "Homo sapiens, 120 h; CWR22RV1, 5 days of treatment, Figure 1F", "procedure": "as §1"}, "[5]": {"system": "MDA-MB-468", "assay": "Cell viability assay (CellTiter-Glo, 5 days)", "format": "cell-based", "details": "Homo sapiens, 120 h; MDA-MB-468, 5 days of treatment, Figure 1F", "procedure": "as §1"}, "[6]": {"system": "22RV1", "assay": "Cell viability assay (CellTiter-Glo, 5 days)", "format": "cell-based", "details": "Homo sapiens", "procedure": "as §1"}, "[7]": {"system": "LAPC4", "assay": "Cell viability assay (CellTiter-Glo, 5 days)", "format": "cell-based", "details": "Homo sapiens", "procedure": "as §1"}, "[8]": {"system": "DU145", "assay": "Cell viability assay (CellTiter-Glo, 5 days)", "format": "cell-based", "details": "Homo sapiens, DU-145, 120 h; DU145, 5 days of treatment, Figure 1F", "procedure": "as §1"}, "[9]": {"system": "BPH-1", "assay": "Cell viability assay (CellTiter-Glo, 5 days)", "format": "cell-based", "details": "Homo sapiens; BPH-1, dose-response curve, Figure 3A", "procedure": "as §1"}, "[10]": {"system": "MCF7", "assay": "Cell viability assay (CellTiter-Glo, 5 days)", "format": "cell-based", "details": "Homo sapiens, 120 h; MCF7, 5 days of treatment, Figure 1F", "procedure": "as §1"}, "[11]": {"system": "MCF12A", "assay": "Cell viability assay (CellTiter-Glo, 5 days)", "format": "cell-based", "details": "Homo sapiens, MCF-12A, 120 h, 5 days of treatment, Figure 1F", "procedure": "as §1"}, "[12]": {"system": "PrEC", "assay": "Cell viability assay (CellTiter-Glo, 5 days)", "format": "cell-based", "details": "Homo sapiens, 120 h, 5 days of treatment, Figure 1F", "procedure": "as §1"}, "[13]": {"system": "WPMY-1", "assay": "Cell viability assay (CellTiter-Glo, 5 days)", "format": "cell-based", "details": "Homo sapiens, 120 h; WPMY-1, 5 days of treatment, Figure 1F", "procedure": "as §1"}, "[14]": {"system": "SK-BR-3", "assay": "Cell viability assay (CellTiter-Glo, 5 days)", "format": "cell-based", "details": "Homo sapiens, 120 h; SK-BR-3, 5 days of treatment, Figure 1F", "procedure": "as §1"}, "[15]": {"system": "MCF10A", "assay": "Cell viability assay (CellTiter-Glo, 5 days)", "format": "cell-based", "details": "Homo sapiens, MCF-10A, 120 h, 5 days of treatment, Figure 1F", "procedure": "as §1"}, "[16]": {"system": "PC3", "assay": "Cell viability assay (CellTiter-Glo, 5 days)", "format": "cell-based", "details": "Homo sapiens, PC-3, 120 h; PC3, 5 days of treatment, Figure 1F", "procedure": "as §1"}, "[17]": {"system": "MFM223", "assay": "Cell viability assay (CellTiter-Glo, 5 days)", "format": "cell-based", "details": "Homo sapiens, MFM-223, 120 h; MFM223, 5 days of treatment, Figure 1F", "procedure": "as §1"}, "[18]": {"assay": "Pharmacokinetic profile in Sprague Dawley rats", "format": "in vivo, rat", "details": "Sprague-Dawley, rat, plasma, SD rats; for AUC(0-t): read-out: AUC(0-t); for Tmax: read-out: Tmax"}, "[19]": {"system": "WA74 PDX", "assay": "WA74 patient-derived xenograft efficacy", "format": "in vivo, mouse", "procedure": "(§2) Six-week-old male CB17SCID mice obtained from Charles River (Stock # 236), were used to establish subcutaneous tumors on both dorsal flanks. Tumor dimensions were measured biweekly using digital calipers, applying the formula (π/6) (L × W^2), where L and W represent tumor length and width, respectively. At the study conclusion, mice were euthanized, and tumors were excised and weighed. The University of Michigan Institutional Animal Care and Use Committee (IACUC) approved all in vivo studies.\n(§3) WA74 PDX model was developed at the University of Michigan during collection of a rapid autopsy case as part of the Michigan Legacy Tissue Program (MLTP). PC310 PDX model was obtained from Erasmus Medical Center, Rotterdam, the Netherlands. Both PDX lines were propagated in male CB17SCID mice by surgically implanting 2 mm^3 tumor fragments, coated with 100% Matrigel, into both flanks of mice. When tumors reached approximately 200 mm^3, mice were randomized into treatment groups. These groups received either 30 mg/kg YJ9069 via intravenous injection or 100 mg/kg YJ1206 by oral gavage, both administered three times per week, with or without 15 mg/kg uprosertib by oral gavage five days per week for 3–4 weeks. In accordance with IACUC guidelines, the maximum tumor size was limited to 2.0 cm in any dimension, and mice were euthanized if xenografts reached this endpoint."}, "[20]": {"system": "androgen receptor (AR)-positive prostate and breast cancer cells", "assay": "Cell viability screening, panel of 155 normal and cancer cell lines", "format": "cell-based", "details": "Homo sapiens, 120 h, 5 days, Figure 1G", "procedure": "as §1"}, "[21]": {"system": "normal and non-neoplastic cells", "assay": "Cell viability screening, panel of 155 normal and cancer cell lines", "format": "cell-based", "details": "Homo sapiens, 120 h, 5 days, Figure 1G", "procedure": "as §1"}, "[22]": {"system": "castrated VCaP xenograft (VCaP-CRPC)", "assay": "VCaP castration-resistant prostate cancer xenograft efficacy", "format": "in vivo, mouse", "details": "i.v. 30 mg/kg 3x/week, 18 days", "procedure": "as §2\nFor the VCaP castration-resistant tumor model, 3×10^6 VCaP cells were subcutaneously injected into both dorsal flanks of mice using a serum-free medium mixed with 50% Matrigel (BD Biosciences). Upon tumors reaching palpable size (∼200 mm^3), animals underwent castration. When tumors regrew to their pre-castration size, mice were randomized for treatment with 30 mg/kg YJ9069 or vehicle via intravenous injection or 100 mg/kg YJ1206 or vehicle, […]"}, "[23]": {"system": "PC310 PDX", "assay": "PC310 patient-derived xenograft efficacy", "format": "in vivo, mouse", "details": "i.v. 30 mg/kg 3x/week", "procedure": "as §2, §3"}},
  "note": "Read-outs that look alike come from different tables or passages of the source.",
  "data": [
    {"smiles": "O=C1CCC(N2C(=O)c3cccc(OCC(=O)N4CCN(c5ccc(N(C(=O)NCc6ccccc6)C6CCC(Nc7ncc8ccccc8n7)CC6)cc5)CC4)c3C2=O)C(=O)N1", "note": "(stereo not drawn) [YJ9069]", "values": [
      {"measurement": "IC50", "setting": "[1]; 120 h, VCaP cells, 5 days, Figure 4C, read-out: IC50", "result": 22.2, "unit": "nM"},
      {"measurement": "IC50", "setting": "[1]; 120 h, VCaP cells, 5 days, Figure S1E, read-out: IC50", "result": 44, "unit": "nM"},
      {"measurement": "IC50", "setting": "[1]; VCaP cell viability, linker optimization, Figure S4B, read-out: VCaP IC50", "result": 22.9, "unit": "nM"},
      {"measurement": "IC50", "setting": "[2]", "result": "> 10000", "unit": "nM"},
      {"measurement": "IC50", "setting": "[3]", "result": "> 10000", "unit": "nM"},
      {"measurement": "IC50", "setting": "[4]", "result": 428, "unit": "nM"},
      {"measurement": "IC50", "setting": "[5]", "result": 678, "unit": "nM"},
      {"measurement": "IC50", "setting": "[6]; 120 h, 22RV1, 5 days of treatment, Figure 1F", "result": 90.3, "unit": "nM"},
      {"measurement": "IC50", "setting": "[6]; 22RV1, dose-response curve, Figure 3A", "result": 144, "unit": "nM"},
      {"measurement": "IC50", "setting": "[7]; 120 h, LAPC4, 5 days of treatment, Figure 1F", "result": 152, "unit": "nM"},
      {"measurement": "IC50", "setting": "[7]; LAPC4, dose-response curve, Figure 3A", "result": 109, "unit": "nM"},
      {"measurement": "IC50", "setting": "[8]", "result": "> 10000", "unit": "nM"},
      {"measurement": "IC50", "setting": "[9]", "result": "> 10000", "unit": "nM"},
      {"measurement": "IC50", "setting": "[10]", "result": 1740, "unit": "nM"},
      {"measurement": "IC50", "setting": "[11]", "result": "> 10000", "unit": "nM"},
      {"measurement": "IC50", "setting": "[12]", "result": "> 10000", "unit": "nM"},
      {"measurement": "IC50", "setting": "[13]", "result": "> 10000", "unit": "nM"},
      {"measurement": "IC50", "setting": "[14]", "result": 1280, "unit": "nM"},
      {"measurement": "IC50", "setting": "[15]", "result": "> 10000", "unit": "nM"},
      {"measurement": "IC50", "setting": "[16]", "result": 2390, "unit": "nM"},
      {"measurement": "IC50", "setting": "[17]", "result": 44.2, "unit": "nM"},
      {"measurement": "Cmax", "setting": "[18]; iv, i.v. 2.5 mg/kg", "result": 4130, "unit": "nM"},
      {"measurement": "clearance", "setting": "[18]; iv, i.v. 2.5 mg/kg", "result": 14.1, "unit": "mL/min/kg"},
      {"measurement": "half-life", "setting": "[18]; iv, i.v. 2.5 mg/kg", "result": 4.39, "unit": "h"},
      {"measurement": "AUC", "setting": "[18]; iv, i.v. 2.5 mg/kg, read-out: AUC(0-)", "result": 2970, "unit": "ng·h/mL"},
      {"measurement": "AUC(0-t)", "setting": "[18]; iv, i.v. 2.5 mg/kg", "result": 2930, "unit": "ng·h/mL"},
      {"measurement": "Tmax", "setting": "[18]; iv, i.v. 2.5 mg/kg", "result": 0.08, "unit": "h"},
      {"measurement": "Cmax", "setting": "[18]; oral 10 mg/kg", "result": 6, "unit": "nM"},
      {"measurement": "bioavailability", "setting": "[18]; oral 10 mg/kg vs i.v. 2.5 mg/kg, read-out: F(%) (bioavailability by oral gavage)", "result": 0.04, "unit": "%"},
      {"measurement": "AUC(0-t)", "setting": "[18]; oral 10 mg/kg", "result": 5.06, "unit": "ng·h/mL"},
      {"measurement": "Tmax", "setting": "[18]; oral 10 mg/kg", "result": 1.56, "unit": "h"},
      {"measurement": "anti-tumor effect (regression)", "setting": "[19]; 30 mg/kg, 3 times/week, 21 days", "result": "regression in all animals"},
      {"measurement": "partial response (PR), waterfall plot (RECIST)", "setting": "[19]; i.v. 30 mg/kg 2x/week", "result": 43, "unit": "%"},
      {"measurement": "stable disease (SD), waterfall plot (RECIST)", "setting": "[19]; i.v. 30 mg/kg 2x/week", "result": 43, "unit": "%"},
      {"measurement": "partial response (PR), waterfall plot (RECIST)", "setting": "[19]; i.v. 30 mg/kg 3x/week", "result": 100, "unit": "%"},
      {"measurement": "IC50", "setting": "[20]", "result": "< 500", "unit": "nM"},
      {"measurement": "IC50", "setting": "[21]", "result": "> 10000", "unit": "nM"},
      {"measurement": "treated animals with tumor regression exceeding 50%", "setting": "[22]; VCaP-CRPC", "result": 73, "unit": "%"},
      {"measurement": "partial response (PR), waterfall plot (RECIST)", "setting": "[22]; castrated VCaP", "result": 82, "unit": "%"},
      {"measurement": "stable disease (SD), waterfall plot (RECIST)", "setting": "[22]; castrated VCaP", "result": 18, "unit": "%"},
      {"measurement": "progressive disease (PD), waterfall plot (RECIST)", "setting": "[23]", "result": 63, "unit": "%"},
      {"measurement": "stable disease (SD), waterfall plot (RECIST)", "setting": "[23]", "result": 31, "unit": "%"}
    ]}
  ]
}
